The NIST ThermoML archive (doi:10.1021/acs.jced.6b00766)

Experiment: mn = molality of the nth substance listed, in mol/kg
Conditions: 101.3 kPa, Liquid; for viscosity: Capillary tube (Ostwald / Ubbelohde) method; for mass density: Vibrating tube method

OC[C@@H](O)[C@H](O)[C@@H](O)CO [xylitol] + O
Conditions | mass density, m1 = 0.2 [kg/m3] | mass density, m1 = 0.4 [kg/m3] | mass density, m1 = 0.6 [kg/m3] | mass density, m1 = 0.8 [kg/m3] | mass density, m1 = 1 [kg/m3] | viscosity, m1 = 0.2 [mPa·s] | viscosity, m1 = 0.4 [mPa·s] | viscosity, m1 = 0.6 [mPa·s] | viscosity, m1 = 0.8 [mPa·s] | viscosity, m1 = 1 [mPa·s]
293.15 K | 1008.15 | 1017.64 | 1026.71 | 1035.41 | 1043.78 | 1.079 | 1.161 | 1.25 | 1.348 | 1.443
303.15 K | 1005.42 | 1014.74 | 1023.67 | 1032.22 | 1040.41 | 0.855 | 0.916 | 0.981 | 1.059 | 1.128
313.15 K | 1001.85 | 1011.07 | 1019.85 | 1028.28 | 1036.38 | 0.697 | 0.744 | 0.794 | 0.851 | 0.904
323.15 K | 997.56 | 1006.6 | 1015.35 | 1023.7 | 1031.65 | 0.582 | 0.617 | 0.657 | 0.701 | 0.741
